Laboratory results published in PMC10879502, “Linking ATP and allosteric sites to achieve superadditive binding with bivalent EGFR kinase inhibitors” (Communications Chemistry, 2024).

Columns and labels:
Assay in all cases: KINOMEscan
Type in all cases: binding
Conditions in all cases: 1 μM
IRAK3 = target: T1, IRAK3 (Homo sapiens, UniProt Q9Y616)
T1 construct: purchased Eurofins DiscoverX (KINOMEscan)

CLK1 = CLK1 (Homo sapiens, UniProt P49759)
BMPR1A = BMPR1A (Homo sapiens, UniProt P36894)
GRK2 = target: T2, GRK2 (Homo sapiens, UniProt P25098)
T2 construct: purchased Eurofins DiscoverX Corporation

KIT(V559D) = target: T3, KIT(V559D) (Homo sapiens, UniProt P10721, V559D)
T3 construct: purchased Eurofins DiscoverX Corporation

NEK1 = target: T4, NEK1 (Homo sapiens, UniProt Q96PY6)
T4 construct: purchased Eurofins DiscoverX Corporation

MET(M1250T) = target: T5, MET(M1250T) (Homo sapiens, UniProt P08581, M1250T)
T5 construct: purchased Eurofins DiscoverX Corporation

FLT3(ITD+D835V) = system: FLT3(ITD+D835V)
PIK4CB = PIK4CB (Homo sapiens, UniProt Q9UBF8)
CAMK2G = target: T6, CAMK2G (Homo sapiens, UniProt Q13555)
T6 construct: purchased Eurofins DiscoverX Corporation (KINOMEscan)

FLT3 = FLT3 (Homo sapiens, UniProt P36888)
LYN = target: T7, LYN (Homo sapiens, UniProt P07948)
T7 construct: purchased Eurofins DiscoverX Corporation

FER = FER (Homo sapiens, UniProt P16591)
PIK3CA(E545K) = PIK3CA(E545K) (Homo sapiens, UniProt P42336, E545K)
TBK1 = target: T8, TBK1 (Homo sapiens, UniProt Q9UHD2)
T8 construct: purchased Eurofins DiscoverX Corporation

HPK1 = target: T9, HPK1 (Homo sapiens, UniProt Q92918)
T9 construct: purchased Eurofins DiscoverX (KINOMEscan)

CAMKK2 = target: T10, CAMKK2 (Homo sapiens, UniProt Q96RR4)
T10 construct: purchased Eurofins DiscoverX Corporation (KINOMEscan)

PAK3 = PAK3 (Homo sapiens, UniProt O75914)
TRPM6 = target: T11, TRPM6 (Homo sapiens, UniProt Q9BX84)
T11 construct: purchased Eurofins DiscoverX Corporation

MYO3A = target: T12, MYO3A (Homo sapiens, UniProt Q8NEV4)
T12 construct: purchased Eurofins DiscoverX Corporation

LKB1 = target: T13, LKB1 (Homo sapiens, UniProt Q15831)
T13 construct: purchased Eurofins DiscoverX Corporation

HIPK2 = target: T14, HIPK2 (Homo sapiens, UniProt Q9H2X6)
T14 construct: purchased Eurofins DiscoverX Corporation

PIK3CA(C420R) = PIK3CA(C420R) (Homo sapiens, UniProt P42336, C420R)
PRKX = PRKX (Homo sapiens, UniProt P51817)
EPHA1 = EPHA1 (Homo sapiens, UniProt P21709)
CSNK1E = target: T15, CSNK1E (Homo sapiens, UniProt P49674)
T15 construct: purchased Eurofins DiscoverX Corporation

EPHB6 = EPHB6 (Homo sapiens, UniProt O15197)
MLK2 = target: T16, MLK2 (Homo sapiens, UniProt Q02779)
T16 construct: purchased Eurofins DiscoverX Corporation

RIOK3 = RIOK3 (Homo sapiens, UniProt O14730)
PIP5K1A = PIP5K1A (Homo sapiens, UniProt Q99755)
PIK3CA(Q546K) = PIK3CA(Q546K) (Homo sapiens, UniProt P42336, Q546K)
CSF1R = CSF1R (Homo sapiens, UniProt P07333)
MST2 = target: T17, MST2 (Homo sapiens, UniProt Q13188)
T17 construct: purchased Eurofins DiscoverX Corporation

ERK5 = ERK5 (Homo sapiens, UniProt Q13164)
RET(V804M) = RET(V804M) (Homo sapiens, UniProt P07949, V804M)
NEK11 = target: T18, NEK11 (Homo sapiens, UniProt Q8NG66)
T18 construct: purchased Eurofins DiscoverX Corporation

SNARK = SNARK (Homo sapiens, UniProt Q9H093)
LTK = target: T19, LTK (Homo sapiens, UniProt P29376)
T19 construct: purchased Eurofins DiscoverX Corporation

AXL = AXL (Homo sapiens, UniProt P30530)
CDKL3 = CDKL3 (Homo sapiens, UniProt Q8IVW4)
PKAC-beta = PKAC-beta (Homo sapiens, UniProt P22694)
GRK1 = target: T20, GRK1 (Homo sapiens, UniProt Q15835)
T20 construct: purchased Eurofins DiscoverX Corporation

EGFR(G719S) = EGFR(G719S) (Homo sapiens, UniProt P00533, G719S)

PIK3CA(C420R), sequence (P42336 whole entry C420R): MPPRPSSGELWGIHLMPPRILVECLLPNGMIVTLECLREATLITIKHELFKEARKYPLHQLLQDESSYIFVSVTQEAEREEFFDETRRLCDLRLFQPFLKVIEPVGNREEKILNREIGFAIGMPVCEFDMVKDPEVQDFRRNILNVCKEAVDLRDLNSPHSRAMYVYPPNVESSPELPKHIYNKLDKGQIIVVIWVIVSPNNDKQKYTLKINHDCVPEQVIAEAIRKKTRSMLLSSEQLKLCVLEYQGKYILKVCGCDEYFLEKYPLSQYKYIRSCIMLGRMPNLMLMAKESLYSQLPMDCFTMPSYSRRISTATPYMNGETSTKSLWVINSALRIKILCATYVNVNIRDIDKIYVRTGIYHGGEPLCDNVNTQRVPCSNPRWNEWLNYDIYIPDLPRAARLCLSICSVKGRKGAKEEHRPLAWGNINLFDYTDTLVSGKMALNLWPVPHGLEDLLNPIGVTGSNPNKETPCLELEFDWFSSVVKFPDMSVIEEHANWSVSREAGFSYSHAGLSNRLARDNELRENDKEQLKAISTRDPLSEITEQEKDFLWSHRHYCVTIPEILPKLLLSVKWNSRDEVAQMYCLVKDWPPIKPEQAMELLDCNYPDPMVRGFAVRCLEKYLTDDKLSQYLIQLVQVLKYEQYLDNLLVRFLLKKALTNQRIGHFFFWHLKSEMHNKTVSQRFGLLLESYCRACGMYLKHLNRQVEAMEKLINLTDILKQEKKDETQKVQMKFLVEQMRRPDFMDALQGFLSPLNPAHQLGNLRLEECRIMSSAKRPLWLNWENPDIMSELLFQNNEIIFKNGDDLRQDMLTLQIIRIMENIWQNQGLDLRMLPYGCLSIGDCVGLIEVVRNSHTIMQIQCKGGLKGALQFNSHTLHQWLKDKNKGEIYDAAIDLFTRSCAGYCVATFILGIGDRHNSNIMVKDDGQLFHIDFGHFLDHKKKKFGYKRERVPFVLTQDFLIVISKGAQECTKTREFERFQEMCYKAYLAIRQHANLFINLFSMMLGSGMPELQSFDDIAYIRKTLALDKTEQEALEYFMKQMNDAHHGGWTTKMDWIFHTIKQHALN
T18 sequence (Q8NG66 whole entry): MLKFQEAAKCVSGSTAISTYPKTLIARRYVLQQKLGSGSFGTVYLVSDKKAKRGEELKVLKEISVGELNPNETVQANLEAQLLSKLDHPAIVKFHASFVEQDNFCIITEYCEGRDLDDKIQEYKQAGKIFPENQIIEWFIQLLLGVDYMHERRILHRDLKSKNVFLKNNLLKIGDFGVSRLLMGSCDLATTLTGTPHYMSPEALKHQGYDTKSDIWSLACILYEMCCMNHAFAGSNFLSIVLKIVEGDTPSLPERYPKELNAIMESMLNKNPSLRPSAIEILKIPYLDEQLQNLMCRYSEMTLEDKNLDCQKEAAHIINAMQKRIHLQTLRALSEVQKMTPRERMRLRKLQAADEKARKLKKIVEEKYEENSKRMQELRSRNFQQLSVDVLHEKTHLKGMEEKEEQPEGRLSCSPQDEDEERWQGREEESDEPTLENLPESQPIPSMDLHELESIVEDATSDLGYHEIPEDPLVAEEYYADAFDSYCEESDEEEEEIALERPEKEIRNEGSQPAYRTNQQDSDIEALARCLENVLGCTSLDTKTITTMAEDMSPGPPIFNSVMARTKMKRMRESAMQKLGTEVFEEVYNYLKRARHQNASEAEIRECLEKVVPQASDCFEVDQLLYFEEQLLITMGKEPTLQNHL
T17 sequence (Q13188 whole entry): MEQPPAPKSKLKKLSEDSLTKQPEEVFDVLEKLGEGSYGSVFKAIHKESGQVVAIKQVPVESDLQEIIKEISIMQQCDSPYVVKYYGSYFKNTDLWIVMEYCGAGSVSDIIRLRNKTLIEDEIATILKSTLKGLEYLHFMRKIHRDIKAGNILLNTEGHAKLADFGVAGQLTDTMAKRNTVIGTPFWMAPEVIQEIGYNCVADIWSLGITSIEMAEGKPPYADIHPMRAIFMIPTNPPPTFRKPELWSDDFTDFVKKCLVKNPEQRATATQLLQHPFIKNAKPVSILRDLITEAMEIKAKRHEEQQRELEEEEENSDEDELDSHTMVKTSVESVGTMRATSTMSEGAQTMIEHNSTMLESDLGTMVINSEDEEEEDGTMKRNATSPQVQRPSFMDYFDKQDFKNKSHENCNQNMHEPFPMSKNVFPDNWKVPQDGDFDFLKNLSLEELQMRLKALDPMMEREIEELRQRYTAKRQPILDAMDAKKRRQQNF
T19 sequence (P29376 17-864): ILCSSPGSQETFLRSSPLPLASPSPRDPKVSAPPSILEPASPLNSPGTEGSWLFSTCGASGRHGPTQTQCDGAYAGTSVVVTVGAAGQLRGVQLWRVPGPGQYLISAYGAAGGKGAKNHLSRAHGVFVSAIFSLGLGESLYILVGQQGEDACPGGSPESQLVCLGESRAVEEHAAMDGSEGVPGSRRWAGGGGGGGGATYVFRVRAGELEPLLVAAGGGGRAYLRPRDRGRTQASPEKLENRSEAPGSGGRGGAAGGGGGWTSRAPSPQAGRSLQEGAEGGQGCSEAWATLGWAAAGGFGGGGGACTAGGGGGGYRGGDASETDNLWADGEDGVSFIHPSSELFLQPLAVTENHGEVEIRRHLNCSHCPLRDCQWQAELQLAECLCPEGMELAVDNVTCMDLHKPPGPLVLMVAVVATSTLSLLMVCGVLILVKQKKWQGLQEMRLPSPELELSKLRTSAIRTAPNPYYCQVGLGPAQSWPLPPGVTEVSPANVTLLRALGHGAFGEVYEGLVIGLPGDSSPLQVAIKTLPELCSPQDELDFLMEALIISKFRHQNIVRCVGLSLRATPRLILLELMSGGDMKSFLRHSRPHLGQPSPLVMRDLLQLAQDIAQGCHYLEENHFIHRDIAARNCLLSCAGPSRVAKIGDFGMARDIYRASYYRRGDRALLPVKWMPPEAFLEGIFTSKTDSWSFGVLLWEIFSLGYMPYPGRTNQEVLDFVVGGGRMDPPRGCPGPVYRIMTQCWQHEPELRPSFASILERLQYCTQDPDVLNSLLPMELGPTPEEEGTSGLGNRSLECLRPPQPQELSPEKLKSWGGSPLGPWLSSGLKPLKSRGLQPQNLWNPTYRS
T9 sequence (Q92918 whole entry): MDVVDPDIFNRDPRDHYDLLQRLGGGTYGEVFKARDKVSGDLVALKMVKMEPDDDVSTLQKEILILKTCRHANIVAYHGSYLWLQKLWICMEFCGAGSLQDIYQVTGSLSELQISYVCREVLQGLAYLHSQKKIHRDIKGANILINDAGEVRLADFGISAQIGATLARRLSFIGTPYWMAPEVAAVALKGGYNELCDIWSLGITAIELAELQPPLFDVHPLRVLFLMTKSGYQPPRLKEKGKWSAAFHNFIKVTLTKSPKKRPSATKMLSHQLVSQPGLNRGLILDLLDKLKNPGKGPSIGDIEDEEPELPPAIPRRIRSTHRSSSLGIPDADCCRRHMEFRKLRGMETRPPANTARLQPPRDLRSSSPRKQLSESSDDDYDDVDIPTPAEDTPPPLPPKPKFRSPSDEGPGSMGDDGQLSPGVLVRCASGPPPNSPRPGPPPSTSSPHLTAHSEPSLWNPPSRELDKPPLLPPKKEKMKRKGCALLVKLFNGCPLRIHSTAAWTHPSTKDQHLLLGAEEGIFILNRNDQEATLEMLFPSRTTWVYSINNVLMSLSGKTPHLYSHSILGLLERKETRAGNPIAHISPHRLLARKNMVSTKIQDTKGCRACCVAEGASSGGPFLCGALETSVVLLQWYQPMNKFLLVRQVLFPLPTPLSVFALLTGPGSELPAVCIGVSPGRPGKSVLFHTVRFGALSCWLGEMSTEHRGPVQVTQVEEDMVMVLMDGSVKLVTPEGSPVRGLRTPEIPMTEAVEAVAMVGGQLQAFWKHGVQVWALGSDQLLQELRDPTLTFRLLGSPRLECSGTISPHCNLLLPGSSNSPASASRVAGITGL
AXL, sequence (P30530 26-894): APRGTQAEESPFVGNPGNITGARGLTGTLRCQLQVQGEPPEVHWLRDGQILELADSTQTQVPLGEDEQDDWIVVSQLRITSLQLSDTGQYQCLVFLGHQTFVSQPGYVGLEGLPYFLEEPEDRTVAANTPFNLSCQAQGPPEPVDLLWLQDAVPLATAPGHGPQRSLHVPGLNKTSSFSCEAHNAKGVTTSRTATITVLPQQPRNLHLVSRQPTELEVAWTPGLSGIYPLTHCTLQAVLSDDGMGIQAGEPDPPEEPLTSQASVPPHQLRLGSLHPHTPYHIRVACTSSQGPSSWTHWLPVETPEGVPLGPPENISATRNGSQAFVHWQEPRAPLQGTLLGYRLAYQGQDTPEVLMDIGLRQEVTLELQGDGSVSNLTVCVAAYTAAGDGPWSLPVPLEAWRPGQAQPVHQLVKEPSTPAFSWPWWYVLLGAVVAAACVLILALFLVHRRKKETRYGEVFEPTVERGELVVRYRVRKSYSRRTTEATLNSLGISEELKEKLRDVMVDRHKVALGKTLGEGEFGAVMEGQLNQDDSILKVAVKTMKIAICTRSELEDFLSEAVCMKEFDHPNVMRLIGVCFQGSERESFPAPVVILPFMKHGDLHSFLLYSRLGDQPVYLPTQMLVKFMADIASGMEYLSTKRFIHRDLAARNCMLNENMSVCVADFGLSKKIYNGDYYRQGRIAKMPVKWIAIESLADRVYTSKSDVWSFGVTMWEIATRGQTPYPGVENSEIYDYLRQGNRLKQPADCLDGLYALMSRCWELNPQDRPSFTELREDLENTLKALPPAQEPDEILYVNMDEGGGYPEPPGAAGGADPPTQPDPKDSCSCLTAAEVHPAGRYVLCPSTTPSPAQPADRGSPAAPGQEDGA
PIK3CA(Q546K), sequence (P42336 whole entry Q546K): as the sequence (P42336 whole entry C420R) above, with R420C, Q546K counted along it
PIK3CA(E545K), sequence (P42336 whole entry E545K): as the sequence (P42336 whole entry C420R) above, with R420C, E545K counted along it

C=CC(=O)Nc1ccc(OC)c(Nc2cc(-c3[nH]c(CC)nc3-c3cccc(NC(=O)c4cccc5c4NC(=O)c4ccccc4N5)c3)ccn2)c1 [Compound 4]
POC (IRAK3): 39% of control | POC (CLK1): 100% of control | POC (BMPR1A): 85% of control | POC (GRK2): 100% of control | POC (KIT(V559D)): 100% of control | POC (NEK1): 90% of control | POC (MET(M1250T)): 89% of control | POC (FLT3(ITD+D835V)): 100% of control | POC (PIK4CB): 93% of control | POC (CAMK2G): 100% of control | POC (FLT3): 100% of control | POC (LYN): 22% of control | POC (FER): 36% of control | POC (PIK3CA(E545K)): 100% of control | POC (TBK1): 95% of control | POC (HPK1): 45% of control | POC (CAMKK2): 95% of control | POC (PAK3): 70% of control | POC (TRPM6): 99% of control | POC (MYO3A): 14% of control | POC (LKB1): 100% of control | POC (HIPK2): 100% of control | POC (PIK3CA(C420R)): 66% of control | POC (PRKX): 100% of control | POC (EPHA1): 100% of control | POC (CSNK1E): 88% of control | POC (EPHB6): 100% of control | POC (MLK2): 97% of control | POC (RIOK3): 100% of control | POC (PIP5K1A): 75% of control | POC (PIK3CA(Q546K)): 100% of control | POC (CSF1R): 100% of control | POC (MST2): 14% of control | POC (ERK5): 100% of control | POC (RET(V804M)): 91% of control | POC (NEK11): 100% of control | POC (SNARK): 100% of control | POC (LTK): 48% of control | POC (AXL): 98% of control | POC (CDKL3): 100% of control | POC (PKAC-beta): 98% of control | POC (GRK1): 94% of control | POC (EGFR(G719S)): 13% of control
